Measured values as given in patent US20100234390A1, “NOVEL COMPOUND AND THEIR USE” (priority 2007, published 2010).
≈ marks a conversion by molar mass, not a printed value.

Legend:
Assay in all cases: Agar dilution MIC
[1] = test system: S. epidermidis MRO 02045; format: cell-based; conditions: Staphylococcus epidermidis, MRO02045, 35° C., 16-20 hours, read-out: Antimicrobial Screening (MIC)
Description: (§1) Briefly, the compounds of invention were weighed, dissolved in dimethyl sulfoxide, serially two fold diluted in the same solvent and then incorporated into molten Mueller Hinton Agar (MHA) in a petridish just before solidification, with each petridish containing a different concentration of a compound.
(§2) The bacterial inoculum was prepared by picking 3 to 5 well isolated bacterial colonies with the same morphological appearance from an 18-24 hours old culture with an inoculating loop, transferring the growth to a tube containing 3 mL of normal saline and adjusting the turbidity of the saline suspension to 0.5 Mc Farland Turbidity Standard equivalent to a bacterial population of 1.5×10^8 colony forming units (CFU) per mL of suspension. The suspension was diluted 1:10 in saline (i.e. 0.5 mL suspension 4.5 mL saline) to get a bacterial population of 1.5×10^7 CFU/mL as inoculum.
(§3) The inoculated petridishes were incubated at 35° C. in an ambient atmosphere for 16-20 hours.

[2] = test system: S. epidermidis MRO 02002; format: cell-based; conditions: Staphylococcus epidermidis, MRO02002, 35° C., 16-20 hours, read-out: Antimicrobial Screening (MIC)
Description: as §1, §2, §3

[3] = test system: S. haemolyticus MRO 02064; format: cell-based; conditions: Staphylococcus haemolyticus, MRO02064, 35° C., 16-20 hours, read-out: Antimicrobial Screening (MIC)
Description: as §1, §2, §3

[4] = test system: S. epidermidis MRO 002046; format: cell-based; conditions: Staphylococcus epidermidis, MRO002046, 35° C., 16-20 hours, read-out: Antimicrobial Screening (MIC)
Description: as §1, §2, §3

[5] = test system: S. epidermidis MRO 02095; format: cell-based; conditions: Staphylococcus epidermidis, MRO02095, 35° C., 16-20 hours, read-out: Antimicrobial Screening (MIC)
Description: as §1, §2, §3

[6] = test system: S. saprophyticus MRO 02003; format: cell-based; conditions: Staphylococcus saprophyticus, MRO02003, 35° C., 16-20 hours, read-out: Antimicrobial Screening (MIC)
Description: as §1, §2, §3

[7] = test system: M. catarrhalis ATCC 43627; format: cell-based, Moraxella catarrhalis; conditions: Moraxella catarrhalis, ATCC43627, 35° C., 16-20 hours, read-out: Antimicrobial Screening (MIC)
Description: as §1, §2, §3

[8] = test system: M. catarrhalis ATCC 43628; format: cell-based, Moraxella catarrhalis; conditions: Moraxella catarrhalis, ATCC43628, 35° C., 16-20 hours, read-out: Antimicrobial Screening (MIC)
Description: as §1, §2, §3

[9] = test system: M. catarrhalis ATCC 43617; format: cell-based, Moraxella catarrhalis; conditions: Moraxella catarrhalis, ATCC43617, 35° C., 16-20 hours, read-out: Antimicrobial Screening (MIC)
Description: as §1, §2, §3

[10] = test system: E. faecalis MRO 04050; format: cell-based, Enterococcus faecalis; conditions: Enterococcus faecalis, MRO04050, 35° C., 16-20 hours, read-out: Antimicrobial Screening (MIC)
Description: as §1, §2, §3

[11] = test system: E. faecalis MRO 04035; format: cell-based, Enterococcus faecalis; conditions: Enterococcus faecalis, MRO04035, 35° C., 16-20 hours, read-out: Antimicrobial Screening (MIC)
Description: as §1, §2, §3

[12] = test system: E. faecalis ATCC 29212; format: cell-based, Enterococcus faecalis; conditions: Enterococcus faecalis, ATCC29212, 35° C., 16-20 hours, read-out: Antimicrobial Screening (MIC)
Description: as §1, §2, §3

[13] = test system: E. faecalis ATCC 51299; format: cell-based, Enterococcus faecalis; conditions: Enterococcus faecalis, ATCC51299, 35° C., 16-20 hours, read-out: Antimicrobial Screening (MIC)
Description: as §1, §2, §3

[14] = test system: E. faecalis MRO 04205; format: cell-based, Enterococcus faecalis; conditions: Enterococcus faecalis, MRO04205, 35° C., 16-20 hours, read-out: Antimicrobial Screening (MIC)
Description: as §1, §2, §3

[15] = test system: S. aureus MRO 0001; format: cell-based, Staphylococcus aureus; conditions: Staphylococcus aureus, MRO0001, 35° C., 16-20 hours, read-out: Antimicrobial Screening (MIC)
Description: as §1, §2, §3

[16] = test system: S. aureus MRO 00030; format: cell-based, Staphylococcus aureus; conditions: Staphylococcus aureus, MRO00030, 35° C., 16-20 hours, read-out: Antimicrobial Screening (MIC)
Description: as §1, §2, §3

[17] = test system: S. aureus MRO 00055; format: cell-based, Staphylococcus aureus; conditions: Staphylococcus aureus, MRO00055, 35° C., 16-20 hours, read-out: Antimicrobial Screening (MIC)
Description: as §1, §2, §3

[18] = test system: S. aureus MRO 00013; format: cell-based, Staphylococcus aureus; conditions: Staphylococcus aureus, MRO00013, 35° C., 16-20 hours, read-out: Antimicrobial Screening (MIC)
Description: as §1, §2, §3

[19] = test system: S. aureus MRO 002053; format: cell-based, Staphylococcus aureus; conditions: Staphylococcus aureus, MRO002053, 35° C., 16-20 hours, read-out: Antimicrobial Screening (MIC)
Description: as §1, §2, §3

[20] = test system: S. aureus MRO 00059; format: cell-based, Staphylococcus aureus; conditions: Staphylococcus aureus, MRO00059, 35° C., 16-20 hours, read-out: Antimicrobial Screening (MIC)
Description: as §1, §2, §3

[21] = test system: S. aureus MRO 0003; format: cell-based, Staphylococcus aureus; conditions: Staphylococcus aureus, MRO0003, 35° C., 16-20 hours, read-out: Antimicrobial Screening (MIC)
Description: as §1, §2, §3

[22] = test system: S. aureus ATCC 29213; format: cell-based, Staphylococcus aureus; conditions: Staphylococcus aureus, ATCC29213, 35° C., 16-20 hours, read-out: Antimicrobial Screening (MIC)
Description: as §1, §2, §3

[23] = test system: S. aureus MRO 00048; format: cell-based, Staphylococcus aureus; conditions: Staphylococcus aureus, MRO00048, 35° C., 16-20 hours, read-out: Antimicrobial Screening (MIC)
Description: as §1, §2, §3

[24] = test system: S. aureus ATCC 43300; format: cell-based, Staphylococcus aureus; conditions: Staphylococcus aureus, ATCC43300, 35° C., 16-20 hours, read-out: Antimicrobial Screening (MIC)
Description: as §1, §2, §3

[25] = test system: E. faecium MRO 04037; format: cell-based, Enterococcus faecium; conditions: Enterococcus faecium, MRO04037, 35° C., 16-20 hours, read-out: Antimicrobial Screening (MIC)
Description: as §1, §2, §3

[26] = test system: E. faecium ATCC 700221; format: cell-based, Enterococcus faecium; conditions: Enterococcus faecium, ATCC700221, 35° C., 16-20 hours, read-out: Antimicrobial Screening (MIC)
Description: as §1, §2, §3

[27] = test system: E. faecium MRO 04198; format: cell-based, Enterococcus faecium; conditions: Enterococcus faecium, MRO04198, 35° C., 16-20 hours, read-out: Antimicrobial Screening (MIC)
Description: as §1, §2, §3

[28] = test system: E. faecium MRO 04038; format: cell-based, Enterococcus faecium; conditions: Enterococcus faecium, MRO04038, 35° C., 16-20 hours, read-out: Antimicrobial Screening (MIC)
Description: as §1, §2, §3

Compound | MIC [1] | MIC [2] | MIC [3] | MIC [4] | MIC [5] | MIC [6] | MIC [7] | MIC [8] | MIC [9] | MIC [10] | MIC [11] | MIC [12] | MIC [13] | MIC [14] | MIC [15] | MIC [16] | MIC [17] | MIC [18] | MIC [19] | MIC [20] | other results
COC(=S)NC[C@H]1CN(c2ccc(N3CCN(C(=O)COCc4ccccc4)CC3)c(F)c2)C(=O)O1 [Example 45, (S)—O-Methyl (3-(4-(4-(2-(benzyloxy)acetyl)piperazin-1-yl)-3-fluorophenyl)-2-oxooxazolidin-5-yl)methylcarbamothioate] | 1 µg/mL (≈ 1.94 µM) | 1 µg/mL (≈ 1.94 µM) | 0.5 µg/mL (≈ 0.968 µM) | 1 µg/mL (≈ 1.94 µM) | 1 µg/mL (≈ 1.94 µM) | 1 µg/mL (≈ 1.94 µM) | 2 µg/mL (≈ 3.87 µM) | 1 µg/mL (≈ 1.94 µM) | 0.5 µg/mL (≈ 0.968 µM) | 0.5 µg/mL (≈ 0.968 µM) | 0.5 µg/mL (≈ 0.968 µM) | 0.5 µg/mL (≈ 0.968 µM) | 0.5 µg/mL (≈ 0.968 µM) | 0.5 µg/mL (≈ 0.968 µM) | 0.5 µg/mL (≈ 0.968 µM) | 1 µg/mL (≈ 1.94 µM) | 1 µg/mL (≈ 1.94 µM) | 1 µg/mL (≈ 1.94 µM) | 1 µg/mL (≈ 1.94 µM) | 0.5 µg/mL (≈ 0.968 µM) | MIC [21]: 1 µg/mL (≈ 1.94 µM); MIC [22]: 1 µg/mL (≈ 1.94 µM); MIC [23]: 0.5 µg/mL (≈ 0.968 µM); MIC [24]: 0.5 µg/mL (≈ 0.968 µM); MIC [25]: 0.5 µg/mL (≈ 0.968 µM); MIC [26]: 0.5 µg/mL (≈ 0.968 µM); MIC [27]: 0.5 µg/mL (≈ 0.968 µM); MIC [28]: 0.5 µg/mL (≈ 0.968 µM)
COC(=S)NC[C@H]1CN(c2ccc(N3CCN(C(=O)C4CC4)CC3)c(F)c2)C(=O)O1 [Example 47, (S)—O-Methyl (3-(4-(4-(cyclopropanecarbonyl)piperazin-1-yl)-3-fluorophenyl)-2-oxooxazolidin-5-yl)methylcarbamothioate] | 1 µg/mL (≈ 2.29 µM) | 1 µg/mL (≈ 2.29 µM) | 0.5 µg/mL (≈ 1.15 µM) | 0.5 µg/mL (≈ 1.15 µM) | 0.5 µg/mL (≈ 1.15 µM) | 1 µg/mL (≈ 2.29 µM) | 2 µg/mL (≈ 4.58 µM) | 2 µg/mL (≈ 4.58 µM) | 1 µg/mL (≈ 2.29 µM) | 0.5 µg/mL (≈ 1.15 µM) | 0.5 µg/mL (≈ 1.15 µM) | 0.5 µg/mL (≈ 1.15 µM) | 0.5 µg/mL (≈ 1.15 µM) | 0.5 µg/mL (≈ 1.15 µM) | 0.5 µg/mL (≈ 1.15 µM) | 1 µg/mL (≈ 2.29 µM) | 1 µg/mL (≈ 2.29 µM) | 1 µg/mL (≈ 2.29 µM) | 0.5 µg/mL (≈ 1.15 µM) | 0.5 µg/mL (≈ 1.15 µM) | MIC [21]: 1 µg/mL (≈ 2.29 µM); MIC [22]: 1 µg/mL (≈ 2.29 µM); MIC [23]: 0.5 µg/mL (≈ 1.15 µM); MIC [24]: 0.5 µg/mL (≈ 1.15 µM); MIC [25]: 0.5 µg/mL (≈ 1.15 µM); MIC [26]: 0.5 µg/mL (≈ 1.15 µM); MIC [27]: 0.5 µg/mL (≈ 1.15 µM); MIC [28]: 0.5 µg/mL (≈ 1.15 µM)
